# Assay results: article PMC4993765, “Shikonin Inhibits Intestinal Calcium-Activated Chloride Channels and Prevents Rotaviral Diarrhea” (Frontiers in Pharmacology, 2016)
# Target: T1, TMEM16A (Homo sapiens, UniProt Q5XXA6)
# T1 construct: gene ANO1
# T1 sequence (Q5XXA6 1-986): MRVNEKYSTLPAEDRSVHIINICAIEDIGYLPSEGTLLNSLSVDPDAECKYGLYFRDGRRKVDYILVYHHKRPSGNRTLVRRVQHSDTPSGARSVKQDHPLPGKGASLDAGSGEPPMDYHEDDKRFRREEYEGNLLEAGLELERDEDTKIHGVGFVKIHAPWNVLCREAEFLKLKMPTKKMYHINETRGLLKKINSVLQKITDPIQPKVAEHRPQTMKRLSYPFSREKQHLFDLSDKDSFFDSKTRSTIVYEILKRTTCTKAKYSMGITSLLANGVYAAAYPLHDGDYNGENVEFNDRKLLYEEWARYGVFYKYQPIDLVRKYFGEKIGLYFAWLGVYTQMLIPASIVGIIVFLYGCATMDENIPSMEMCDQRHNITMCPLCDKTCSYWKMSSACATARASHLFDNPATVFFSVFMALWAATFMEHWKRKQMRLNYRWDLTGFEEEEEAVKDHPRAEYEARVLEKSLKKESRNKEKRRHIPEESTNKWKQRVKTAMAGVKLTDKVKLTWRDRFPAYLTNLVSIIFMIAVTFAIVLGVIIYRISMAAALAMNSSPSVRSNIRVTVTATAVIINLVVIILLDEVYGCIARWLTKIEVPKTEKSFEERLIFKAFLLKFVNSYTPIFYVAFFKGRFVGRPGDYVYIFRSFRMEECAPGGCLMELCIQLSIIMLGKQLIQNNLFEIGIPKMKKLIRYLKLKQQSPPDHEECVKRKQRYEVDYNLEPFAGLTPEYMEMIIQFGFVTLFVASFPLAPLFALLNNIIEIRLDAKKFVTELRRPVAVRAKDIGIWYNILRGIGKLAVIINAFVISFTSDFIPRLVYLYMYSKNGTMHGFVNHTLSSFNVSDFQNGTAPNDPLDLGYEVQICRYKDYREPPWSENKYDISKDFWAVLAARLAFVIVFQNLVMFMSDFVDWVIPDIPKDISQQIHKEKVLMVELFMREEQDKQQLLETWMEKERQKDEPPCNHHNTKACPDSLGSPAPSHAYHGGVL
# Test: short-circuit current (Eact-induced Cl- current) in basolaterally permeabilized FRT cells expressing TMEM16A; also YFP fluorescence quenching
# Format: cell-based
structure (smiles),measurement,value
CC(C)=CC[C@@H](O)C1=CC(=O)c2c(O)ccc(O)c2C1=O [shikonin],IC50,1500 nM
